Data set [1] is described as follows: Permeability in rat perfused jejunum. Type of data set: in vivo. An excerpt:
Improved permeability of prodrugs Zan-Val, GOC-Val, and 3-HPG-Ile compared to the parent compounds is observed in the rat perfused jejunum, as shown in FIG. 3.

Data set [2] concerns the target T1, hPEPT1 (Homo sapiens, UniProt P46059).
T1 sequence (P46059 1-708): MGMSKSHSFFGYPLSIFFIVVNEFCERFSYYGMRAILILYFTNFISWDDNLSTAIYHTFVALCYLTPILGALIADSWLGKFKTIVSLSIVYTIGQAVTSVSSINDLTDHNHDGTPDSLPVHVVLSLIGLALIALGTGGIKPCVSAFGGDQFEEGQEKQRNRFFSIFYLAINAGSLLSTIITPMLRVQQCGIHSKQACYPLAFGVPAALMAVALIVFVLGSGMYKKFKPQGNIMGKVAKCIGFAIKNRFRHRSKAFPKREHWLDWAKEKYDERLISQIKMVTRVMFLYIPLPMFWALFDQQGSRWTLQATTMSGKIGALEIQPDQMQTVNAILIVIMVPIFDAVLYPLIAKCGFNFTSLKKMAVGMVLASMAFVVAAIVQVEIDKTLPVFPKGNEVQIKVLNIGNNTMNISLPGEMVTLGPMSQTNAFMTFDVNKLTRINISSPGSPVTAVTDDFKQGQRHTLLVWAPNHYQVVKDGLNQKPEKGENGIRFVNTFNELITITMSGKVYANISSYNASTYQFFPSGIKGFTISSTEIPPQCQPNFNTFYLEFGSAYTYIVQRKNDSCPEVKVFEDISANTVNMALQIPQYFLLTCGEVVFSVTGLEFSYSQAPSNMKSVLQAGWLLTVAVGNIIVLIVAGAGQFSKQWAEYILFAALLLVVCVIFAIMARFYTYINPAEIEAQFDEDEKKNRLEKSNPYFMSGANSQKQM
Briefly: [3H]Gly-Sar uptake inhibition in HeLa/hPEPT1 cells. The format is cell-based. On the set-up: expressed in transfected cells; host or cells: HeLa.

For data set [3], the target named is T1, hPEPT1. Briefly: [3H]Gly-Sar uptake inhibition in Caco-2 cells. The format is cell-based. The procedure: The affinity of zanamivir, GOC, 3-hydroxyphenylglycine (3-HPG) and prodrugs thereof for particular transporters is evaluated using [^3H]Gly-Sar uptake inhibition in Caco-2 cells and in HeLa/hPEPT1 cells. Valacyclovir, a known substrate of hPEPT1, was used as positive control (Table 1). […] The valyl and isoleucyl prodrugs of zanamivir, GOC, and 3-HPG have higher affinity for hPEPT1 than the parent compounds.

Data set [4] is described as follows: AUC and bioavailability of GOC and GOC prodrugs in fasted rats (IV or duodenal injection). As to conditions: for AUC0-4 hr, Prodrug / AUC0-4 hr, Total AUC / AUC0-4 hr, GOC / % F: rat. How it is done: 10 mg-eq/kg of GOC or GOC prodrugs were directly injected to duodenum segment of fasted rats. […] Appropriate volume of blood samples was taken from the jugular vein at the predetermined time points.
Rat plasma samples were analyzed for GOC prodrug and GOC using LCMSMS following solid phase extraction sampling preparation. A reverse phase solid-phase cartridge (HLB, 30 mg/1 cc, Waters) was activated with 1.0 mL of methanol and equilibrated with 1.0 mL of water. A 250 ul aliquot of rat plasma was acidified with 250 uL of 1% TFA solution and loaded on to the cartridges. After washing with 1.0 ml water, the compounds are eluted with 1 ml of 2% acetic acid solution. The eluted solvent was evaporated under nitrogen stream in TurboVap and the residue was reconstituted in 250 ul of mobile phase.
Samples were analyzed using a LC/MS/MS system (Micromass Quattro II, HP 1100). The HPLC system consisted of a HP1100 system (Hewlett Packard, CA). 10 ul of sample was separated with a C18 column (2.1×150 mm) using a mobile phase of 10-30% acetonitrile:water containing 0.1% formic acid. Quattro II triple quadrupole mass spectrometer (Micromass, Beverly, Mass.) interfaced with the HPLC via electropray source was used for the mass analysis and detection. The data acquisition software was MassLynx (version 4.0). Calibration curves were constructed by weighted (1/x) least square regression of peak area versus concentrations of the calibration standards.
Bioavailability calculation is based on the AUC0-4 hrs.

Data set [5] relates to influenza virus neuraminidase. As to conditions: read-out: IC50, influenza virus neuraminidase; cited from earlier work.
For data set [6] the following is noted: cited from earlier work; for bioavailability: species not stated.
The conditions of data set [7]: 10 mg-eq/kg oral gavage to rats; cited from earlier work.
Data set [8] can be described thus: Hydrolysis of prodrugs in buffer over pH 1.2-7.4 at 37° C. Type of data set: physicochemical. The note with it: pH range 1.2-7.4, 37° C. The procedure: The hydrolysis of prodrugs of the present invention in buffer was studied over the pH range 1.2-7.4 at 37° C.
For another data set, the target named is T2, VACVase (Homo sapiens, UniProt Q86WA6).
T2 sequence (Q86WA6 38-291): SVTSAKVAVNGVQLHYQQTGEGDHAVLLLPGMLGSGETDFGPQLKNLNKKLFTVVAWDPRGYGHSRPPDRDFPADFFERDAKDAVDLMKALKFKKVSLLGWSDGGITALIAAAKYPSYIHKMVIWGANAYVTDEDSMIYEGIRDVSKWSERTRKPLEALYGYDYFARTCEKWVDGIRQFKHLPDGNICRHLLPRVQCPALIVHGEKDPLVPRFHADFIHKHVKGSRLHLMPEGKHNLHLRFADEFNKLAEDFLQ
Put plainly: Hydrolysis of prodrugs by VACVase (Michaelis-Menten kinetics).

Substrate in data set [9]: CC(C)[C@H](N)C(=O)OCCOCn1cnc2c(=O)[nH]c(N)nc21
Put plainly: purified protein, by the assay type. As to conditions: 25.0 °C.

[10] abbreviates: HeLa/hPEPT1 cells, mean ± sd, n = 2, read-out: IC50 of [3H]Gly-Sar uptake inhibition.
[11] abbreviates: duodenal administration (OGI) 10 mg-eq/kg.

Results on 15 molecules are retold here after patent US9181281B2, “Prodrugs of neuraminidase inhibitors” (priority 2008, dated 2015).

Where two headings read alike, the source gives them in different places.

Consider `NC(C(=O)O)c1cccc(O)c1` (stereo not shown) [3-HPG, 3-hydroxyphenylglycine], for which the “jejunal permeability” value in data set [1] is “very low, essentially zero permeability”. Moreover, the “affinity for the transporter” value at hPEPT1 [2] (HeLa/hPEPT1 cells) and at hPEPT1 [3] was “poor affinity” each time. For the same molecule, at hPEPT1 [2] (setting [10]), the IC50 (usually the point on the concentration scale where inhibition reaches its midpoint) was > 5000 µM.
Take `CCC(CC)O[C@@H]1C=C(C(=O)OCCNC(=O)[C@@H](N)C(C)C)C[C@H](NC(=N)N)[C@H]1NC(C)=O` [GOC GlyOH L-Val]: the “species found in plasma after dosing” value in data set [4] (rat plasma, OGI 10 mg-eq/kg) is on record as “Only a trace amount of GOC is detected in the plasma”. For the same molecule, in [4] (setting [11]), the “AUC0-4 hr, Prodrug” value is 386 ± 406 (ng/mL) · hrs and the “AUC0-4 hr, Total AUC” value is reported as 401 ± 419 (ng/mL) · hrs.
As to `CCC(CC)O[C@@H]1C=C(C(=O)OCC(C)OC(=O)[C@@H](N)C(C)C)C[C@H](NC(=N)N)[C@H]1NC(C)=O` (stereo partly drawn) [GOC PG L-Val], in data set [4] (setting [11]), the “AUC0-4 hr, Prodrug” value is 17 ± 12 (ng/mL) · hrs and the “AUC0-4 hr, Total AUC” value is 116 ± 61 (ng/mL) · hrs.
With `CCC(CC)O[C@@H]1C=C(C(=O)O)C[C@H](NC(=N)N)[C@H]1NC(C)=O` [GOC, guanidino oseltamivir carboxylate], the IC50 is 0.0009 µM in data set [5] and 6600 ± 3900 µM on hPEPT1 [2] (setting [10]). Besides, the “AUC0-4 hr, GOC” value in data set [4] (IV injection 1 mg/kg) is 385 ± 167 (ng/mL) · hrs; in [4] (setting [11]), 265 ± 91 (ng/mL) · hrs. In addition, the “AUC0-4 hr, Total AUC” value in data set [4] (IV injection 1 mg/kg) is reported as 385 ± 167 (ng/mL) · hrs; in data set [4] (setting [11]) it was 265 ± 91 (ng/mL) · hrs. The “% F” value in data set [4] (IV injection 1 mg/kg (reference)) is 100.0%; in [4] (duodenal administration (OGI) 10 mg-eq/kg, based on AUC0-4 hrs), 4.6%; in [7], 4.0%. For the same molecule, the “jejunal permeability” value in data set [1] is reported as “very low, essentially zero permeability”. For the same molecule, in [6], the bioavailability (usually dose-corrected exposure relative to a reference, in per cent) is ~4.0%. For the same molecule, in [7], the Cmax (commonly the maximum level reached in the sampled fluid or tissue) was 60 ng/mL. Further, the “affinity for the transporter” value at hPEPT1 [2] (HeLa/hPEPT1 cells) and on hPEPT1 [3] was “poor affinity” throughout.
For `CCC(CC)O[C@@H]1C=C(C(=O)OC(C)OC(=O)[C@@H](N)[C@@H](C)CC)C[C@H](NC(=N)N)[C@H]1NC(C)=O` (stereo partly shown) [GOC-Ile, isoleucine ethoxyester of guanidine oseltamivir], the IC50 on hPEPT1 [2] (setting [10]) stood at 450 ± 180 µM. Moreover, the “hydrolysis behaviour in buffer” value in data set [8] is “pH dependent hydrolysis”.
Turning to `CCC(CC)O[C@@H]1C=C(C(=O)OC(C)OC(=O)[C@@H](N)C(C)C)C[C@H](NC(=N)N)[C@H]1NC(C)=O` (stereo partly shown) [GOC-Val, valine ethoxyester of guanidine oseltamivir], the “jejunal permeability” value in [1] is listed as “high permeability, higher than that of metoprolol”. For the same molecule, at VACVase (hydrolysis by VACVase, 25° C.), the Kcat turned out to be 8.7 s⁻¹; the Km (as a rule, the substrate concentration at which the rate is half of its maximum) was 2370 µM; the Vmax is 19.4 nmol/min/μg of VACVase. Besides, at hPEPT1 [2] (setting [10]), the IC50 worked out at 190 ± 10 µM. Further, the “hydrolysis behaviour in buffer” value in [8] is given as “pH dependent hydrolysis”.
For `CCC(CC)O[C@@H]1C=C(C(=O)O)C[C@H](N)[C@H]1NC(C)=O` [GS4071, oseltamivir carboxylate], the bioavailability in data set [6] was ~4.0%. For the same molecule, the Cmax in data set [7] was 30 ng/mL.
In the case of `CCOC(=O)C1=C[C@@H](OC(CC)CC)[C@H](NC(C)=O)[C@@H](N)C1` [GS4104, oseltamivir], in [6] (in rats, mice, dogs and ferrets), the oral bioavailability is on record as 11-73%. Besides, in [7], the “% F” value is 35% and the highest concentration (Cmax) is recorded as 47 ng/mL.
As for `CCOC(=O)C1=C[C@@H](OC(CC)CC)[C@H](NC(C)=O)[C@@H](NC(=N)N)C1` [GS4109], the bioavailability result in [6] is “approximately 2%”. Further, the Cmax in data set [7] is recorded as 30 ng/mL.
Turning to `CC(C)[C@H](N)C(=O)OCCOCn1cnc2c(=O)[nH]c(N)nc21` [Valcyclovir, Valacyclovir], on VACVase, the Vmax is on record as 280 nmol/min/μg of VACVase. The same molecule registered an IC50 on hPEPT1 [2] of 1880 ± 510 µM.
Take `CC[C@H](C)[C@H](N)C(=O)OC(C)OC(=O)C1=C[C@H](NC(=N)N)[C@@H](NC(C)=O)[C@H]([C@H](O)[C@H](O)CO)O1` (stereo partly shown) [Zan-Ile, zanamivir ethoxyisoleucine ester]: on hPEPT1 [2] (setting [10]), the IC50 came to 3040 ± 800 µM.
In the case of `CC(=O)N[C@H]1[C@H]([C@H](O)[C@H](O)CO)OC(C(=O)OC(C)OC(=O)[C@@H](N)C(C)C)=C[C@@H]1NC(=N)N` (stereo partly shown) [Zan-Val, valine ethoxyester of zanamivir], in data set [1], the “jejunal permeability” value is “high permeability, higher than that of metoprolol”. Besides, at VACVase (hydrolysis by VACVase, 25° C.), the Kcat was found to be 21.2 s⁻¹, the Km stood at 1550 µM and the Vmax is listed as 47.2 nmol/min/μg of VACVase. Also, the IC50 at hPEPT1 [2] (setting [10]) was 1950 ± 190 µM. Moreover, in data set [8], the “hydrolysis behaviour in buffer” value was “pH dependent hydrolysis”.
As for `CC(=O)N[C@H]1[C@H]([C@H](O)[C@H](O)CO)OC(C(=O)O)=C[C@@H]1N=C(N)N` [Zanamivir, zanamivir], the “jejunal permeability” value in data set [1] is listed as “very low, essentially zero permeability”. Moreover, in data set [6] (in vivo, po), the absolute oral availability is listed as ~2%. For the same molecule, in data set [7], the “% F” value is on record as 3.7% and the highest concentration (Cmax) is 60 ng/mL. The “affinity for the transporter” value at hPEPT1 [2] (HeLa/hPEPT1 cells) is on record as “poor affinity”. Further, the IC50 on hPEPT1 [2] (setting [10]) was > 30000 µM. Further, the “affinity for the transporter” value at hPEPT1 [3] is listed as “poor affinity”.
Turning to `CCC(CC)[C@H](NC(C)=O)[C@@H]1[C@H](O)[C@@H](C(=O)O)C[C@H]1N=C(N)N` [peramivir], in data set [6] (peramivir, clinical trials context), the oral bioavailability was ≤ 3%.

B1: VACVase (Homo sapiens) (protein)
chain: T2 sequence (Q86WA6 38-291)
Turning to B1, in data set [9], the Km came out at 590 µM; the turnover number (kcat) (as a rule, the number of substrate molecules converted per active site and unit of time at saturation) is 126 s⁻¹; the kcat/Km (as a rule, the second-order rate constant that governs catalysis at low substrate concentration) was determined as 213000 M⁻¹ s⁻¹.
